Test results reported in patent US7618956B2, “Reduction of hair growth” (The Gillette Company, priority 2005, dated 2009).

Tests used:
[1] = system: Human hair follicles in growth phase (anagen); assay: Human hair follicle growth assay; assay type: cell-based; conditions: for Hair follicle length increase (mm) Treated: day 0 to day 7; for % Reduction of human hair follicle growth / Growth of follicle (mm) Treated: Table III
Experimental: Human Hair Follicle Growth Assay:
Human hair follicles in growth phase (anagen) were isolated from face-lift tissue (obtained from plastic surgeons) under dissecting scope using a scalpel and watchmakers forceps. The skin was sliced into thin strips exposing 2-3 rows of follicles that could readily be dissected. Follicles were placed into 0.5 ml William's E medium (Life Technologies, Gaithersburg, Md.) supplemented with 2 mM L-glutamine, 10 μg/ml insulin, 10 ng/ml hydrocortisone, 100 units of penicillin, 0.1 mg/ml streptomycin and 0.25 μg/ml amphotericin B. The follicles were incubated in 24-well plates (1 follicle/well) at 37° C. in an atmosphere of 5% CO2 and 95% air. Compounds are dissolved into dimethyl sulfoxide as 100-fold stock solution. The control hair follicles were treated with dimethyl sulfoxide without prostaglandin. The follicles were photographed in the 24-well plates under the dissecting scope at a power of 10×. Typically, image recordings were made on day 0 (day follicles were placed in culture), and again on day 7. The length of hair follicle was assessed using an image analysis software system. The growth of hair fiber was calculated by the subtracting the follicle length on day 0 from that determined on day 7.

[2] = system: hamster hair mass; assay: Hamster hair mass assay; assay type: in vivo; conditions: vehicle 90% ethanol and 10% propylene glycol
Experimental: Hamster Hair Mass Assay: Hamster hair mass was determined using a method similar to that described in previous patent (US2004/0198821).

[3] = Homo sapiens, Table II, dose 100 μM, vs control

| SMILES | inhibition at 100 µM [1, 3] | Hair follicle length increase (mm) Treated ([1]; Table II, dose 100 μM) | % Reduction of human hair follicle growth ([1]; dose 50 μM) | Growth of follicle (mm) Treated ([1]; dose 50 μM) | % Inhibition of hamster hair mass ([2]; dose 5% (w/v)) | Hair mass (mg) Treated ([2]; dose 5% (w/v)) | % Reduction of human hair follicle growth ([1]; dose 10 μM) | Growth of follicle (mm) Treated ([1]; dose 10 μM) | % Reduction of human hair follicle growth ([1]; dose 100 μM) | Growth of follicle (mm) Treated ([1]; dose 100 μM) | other results |
| --- | --- | --- | --- | --- | --- | --- | --- | --- | --- | --- | --- |
| C[C@H](CCC(=O)O)[C@H]1CC[C@H]2[C@@H]3[C@H](O)C[C@@H]4C[C@H](O)CC[C@]4(C)[C@H]3CC[C@]12C [Chenodeoxycholic acid] | 95.3 ± 5.6% | 0.05 ± 0.06 mm | 91.6 ± 6.5% | 0.13 ± 0.10 mm | 76.4 ± 2.6% | 0.54 ± 0.08 mg | – | – | – | – | % Reduction of human hair follicle growth ([1]; dose 5 μM): 1.3 ± 18.7%; Growth of follicle (mm) Treated ([1]; dose 5 μM): 1.53 ± 0.29 mm; % Reduction of human hair follicle growth ([1]; dose 25 μM): 49.0 ± 17.4%; Growth of follicle (mm) Treated ([1]; dose 25 μM): 0.79 ± 0.27 mm |
| C[C@H](CCC(=O)O)[C@H]1CC[C@H]2[C@@H]3CC[C@@H]4C[C@H](O)CC[C@]4(C)[C@H]3C[C@H](O)[C@]12C [Deoxycholic acid] | 94.3 ± 4.7% | 0.06 ± 0.05 mm | 69.3 ± 13.6% | 0.54 ± 0.34 mm | 63.6 ± 6.0% | 0.92 ± 0.14 mg | 31.8 ± 18.1% | 1.20 ± 0.49 mm | 69.3 ± 13.6% | 0.54 ± 0.34 mm | – |
| CC(C)=CCCC(C)=CCCC(C)=CCO [Farnesol] | 95.4 ± 8% | 0.04 ± 0.07 mm | – | – | – | – | – | – | – | – | – |
| COC(=O)C=C(C)CCC=C(C)CCC1OC1(C)C (centres unmarked) [Juvenile hormone III, 7-Methyl-9-(3,3-dimethyloxivanyl)-3-methyl-2,6-nonadienoic acid methyl ester] | – | 0.21 ± 0.15 mm | – | – | – | – | – | – | – | – | % Inhibition of human hair follicle growth ([1]; Table II, dose 100 μM, vs control): 75.9 ± 17.2% |
| C[C@H](CCC(=O)O)[C@H]1CC[C@H]2[C@@H]3CC[C@@H]4C[C@H](O)CC[C@]4(C)[C@H]3CC[C@]12C [Lithocholic acid] | – | – | – | – | – | – | 64.5 ± 12.9% | 0.44 ± 0.16 mm | – | – | inhibition at 50 µM ([1]; Homo sapiens, Table II, dose 50 μM, vs control): 98.1 ± 1.9%; Hair follicle length increase (mm) Treated ([1]; Table II, dose 50 μM): 0.02 ± 0.02 mm; % Reduction of human hair follicle growth ([1]; dose 2 μM): 33.9 ± 11.3%; Growth of follicle (mm) Treated ([1]; dose 2 μM): 0.82 ± 0.14 mm; % Reduction of human hair follicle growth ([1]; dose 20 μM): 97.6 ± 4.8%; Growth of follicle (mm) Treated ([1]; dose 20 μM): 0.03 ± 0.06 mm; % Inhibition of hamster hair mass ([2]; dose 4% (w/v)): 46.4 ± 6.0%; Hair mass (mg) Treated ([2]; dose 4% (w/v)): 1.01 ± 0.12 mg |
| C[C@H](CCC(=O)O)[C@H]1CC[C@H]2[C@@H]3[C@@H](O)C[C@@H]4C[C@H](O)CC[C@]4(C)[C@H]3CC[C@]12C [Ursodeoxycholic acid] | – | – | 36.3 ± 13.6% | 1.12 ± 0.24 mm | 56.8 ± 3.8% | 1.02 ± 0.16 mg | – | – | 51.1 ± 11.4% | 0.86 ± 0.20 mm | inhibition at 200 µM ([1]; Homo sapiens, Table II, dose 200 μM, vs control): 81.3 ± 10.3%; Hair follicle length increase (mm) Treated ([1]; Table II, dose 200 μM): 0.20 ± 0.11 mm; % Reduction of human hair follicle growth ([1]; dose 150 μM): 65.3 ± 11.4%; Growth of follicle (mm) Treated ([1]; dose 150 μM): 0.61 ± 0.20 mm |
